Starred links: 1 amine or outer side, 2 acyl side, 3 side chain; linkers in the order of their positions; H or OH if unused. Positions of bridges follow the written chain, without caps; N, C: chain ends. Non-standard residues stand in square brackets, D forms with d. Residues, ends and D or L forms follow the SMILES beside them. *: point of attachment. X1 = CC[C@H](C)[C@@H](N[*:1])[C@@H](O)CC(=O)O[C@H](C(=O)[C@H](C)C(=O)[*:2])C(C)C; NMeY = CN[C@@H](Cc1ccc(O)cc1)C(=O)O; dNMeL = CN[C@H](CC(C)C)C(=O)O; Pyruvoyl = CC(=O)C(=O)*
Tests used:
[1] = Effect on blood pressure (statement, no method described); details: in vivo
L-type calcium channel = experiment: Whole-cell patch clamp measurement of calcium current (ICa) in isolated human atrial myocytes; type: cell-based; details: for action on human atrial ICa (current amplitude): whole-cell patch clamp, 22° C., composite dose-response curve (FIG. 2), compared with cells not exposed to drug
Procedure: Human atrial myocytes were obtained from specimens of human right atrial appendage obtained during surgery from hearts of patients undergoing cardiopulmonary bypass. Tissue samples were quickly immersed in a cardioplegia solution consisting of (in mmol/L): 50 KH2 PO4, 8 MgSO4, 10 NaHO3, 5 adenosine, 25 taurine, 140 glucose, and 100 mannitol, titrated to a pH of 7.4 and bubbled with 100% O2 at 0-4° C. Specimens were then minced into 0.5-1 mm cubes and transferred to a 50 ml conical tube containing an ultra-low calcium wash solution containing (in mmol/L); 137 NaCl, 5 KH2 PO4, 1 MgSO4, 10 taurine, 10 glucose, 5 HEPES, and 100 μmol/L (μM) EGTA; pH=7.4 (22-24° C.).
The tissue was next gently agitated by continuous bubbling with 100% O2 for 5 minutes. The tissue was then incubated in 5 ml of solution containing (in mmol/L): 137 NaCl, 5 KH2 PO4, 10 taurine, 10 glucose, 5 HEPES, supplemented with 0.1% bovine albumin, 2.2 mg/ml collagenase type V and 1.0 mg/ml protease type XXIV (Sigma Chemical), pH=7.4 (37° C.) and bubbled continuously with 100% O2. The supernatant was removed after 40 minutes and discarded. The chunks were incubated in a solution of the same ionic composition but supplemented with only collagenase and 100 μmol/L CaCl2.
Microscopic examination of the medium was performed every 5-10 minutes to determine the number and quality of the isolated cells. When the yield appears to be maximal, the cell suspension was centrifuged for 2 minutes and the resulting pellet was resuspended in a modified Kraftbruhe solution containing (in mmol/L): 25 KCl, 10 KH2 PO4, 25 taurine, 0.5 EGTA, 22 glucose, 55 glutamic acid, and 0.1% bovine albumin, pH=7.3 (22-24° C.). Cells were used within 8 hrs after isolation. […]
Ionic currents were measured using the whole-cell variant of the patch clamp technique. […]
Calcium (Ca) currents were measured using an external solution having the composition (in mM): 1.8 CaCl2, 137 NaCl, 20 CsCl, 4 KCl, 1 MgCl2, 10 HEPES, 10 dextrose pH=7.4 with NaOH. […]

| Structure (SMILES) | effect on blood pressure [1] | L-type calcium channel enhancement (L-type calcium channel; FIGS. 1A, 1B and 2) | action on human atrial ICa (current amplitude) (L-type calcium channel) |
| --- | --- | --- | --- |
| CC[C@H](C)[C@H]1NC(=O)[C@@H](NC(=O)[C@@H](CC(C)C)N(C)C(=O)[C@@H]2CCCN2C(=O)C(C)=O)[C@@H](C)OC(=O)[C@H](Cc2ccc(OC)cc2)N(C)C(=O)[C@@H]2CCCN2C(=O)[C@H](CC(C)C)NC(=O)[C@@H](C)C(=O)[C@H](C(C)C)OC(=O)C[C@@H]1O [Aplidine, dehydrodidemnin B] (Pyruvoyl-P[dNMeL]T[X1]LP[NMeY](Me); ester 3-C) | no effect on blood pressure | potent L-type calcium channel enhancer | highly effective, producing a very large increase in current amplitude |
| CC[C@H](C)[C@H]1NC(=O)[C@@H](NC(=O)[C@@H](CC(C)C)N(C)C(=O)[C@@H]2CCCN2C(=O)C(C)O)[C@@H](C)OC(=O)[C@H](Cc2ccc(OC)cc2)N(C)C(=O)[C@@H]2CCCN2C(=O)[C@H](CC(C)C)NC(=O)[C@@H](C)C(=O)[C@H](C(C)C)OC(=O)C[C@@H]1O (stereo partly shown) [Didemnin B] |  |  | no effect |
